According to the NIST ThermoML archive (doi:10.1016/j.jct.2014.03.029):
± gives the expanded uncertainty stated by the source.

Experiments:
[1] = molar heat capacity at constant pressure; settings: 100 kPa, Liquid, Small sample (50 mg) DSC
[2] = Molar enthalpy of transition or fusion; settings: Crystal; DSC
[3] = Crystal; DTA
[4] = molar heat capacity at constant pressure; xn = mol fraction of the nth substance listed; settings: 100 kPa, Liquid, Small sample (50 mg) DSC

c1ccc(-c2ccccc2)cc1 [biphenyl]
[1]
Settings | molar heat capacity at constant pressure [J/K/mol]
353.15 K | 271.56 ± 17
373.15 K | 280.81 ± 17

Settings | Molar enthalpy of transition or fusion [kcal/mol] | Normal melting temperature [°C]
[2] | 4.43 ± 0.129 | –
[3] | – | 69.0 ± 0.7

c1ccc(-c2ccccc2)cc1 [biphenyl] + c1ccc(Oc2ccccc2)cc1
[4], x2 = 0
Settings | molar heat capacity at constant pressure [J/K/mol]
353.15 K | 271.56 ± 17
373.15 K | 280.81 ± 17

c1ccc(Oc2ccccc2)cc1 [diphenyl ether]
[1]
Settings | molar heat capacity at constant pressure [J/K/mol]
313.15 K | 261.61 ± 16
333.15 K | 272.33 ± 17
353.15 K | 281.69 ± 17
373.15 K | 290.88 ± 18

Settings | Molar enthalpy of transition or fusion [kcal/mol] | Normal melting temperature [°C]
[2] | 4.07 ± 0.131 | –
[3] | – | 26.98 ± 0.7

c1ccc(Oc2ccccc2)cc1 [diphenyl ether] + c1ccc(-c2ccccc2)cc1
molar heat capacity at constant pressure [J/K/mol], [4]
Settings | x1 = 0.05 | x1 = 0.15 | x1 = 0.2499 | x1 = 0.4 | x1 = 0.55 | x1 = 0.705 | x1 = 0.85 | x1 = 0.95 | x1 = 1
293.15 K | – | – | – | – | – | 263.62 ± 16 | – | – | –
313.15 K | – | – | – | – | 271.57 ± 17 | 271.4 ± 17 | 267.65 ± 16 | 262.24 ± 16 | 261.61 ± 16
333.15 K | – | – | 270.37 ± 17 | 273.51 ± 17 | 278.25 ± 17 | 279.18 ± 17 | 276.55 ± 17 | 272.24 ± 17 | 272.33 ± 17
353.15 K | 272.81 ± 17 | 277.2 ± 17 | 279.39 ± 17 | 282.35 ± 17 | 285.59 ± 18 | 286.13 ± 18 | 285.61 ± 18 | 281.72 ± 17 | 281.69 ± 17
373.15 K | 282.42 ± 17 | 285.5 ± 18 | 286.99 ± 18 | 290.38 ± 18 | 292.44 ± 18 | 293.24 ± 18 | 294.5 ± 18 | 290.87 ± 18 | 290.88 ± 18
